Test results taken from paper PMC6149822, “A New Series of Pyrrole-Based Chalcones: Synthesis and Evaluation of Antimicrobial Activity, Cytotoxicity, and Genotoxicity” (Molecules : A Journal of Synthetic Chemistry and Natural …, 2017).
Converted amounts (≈) assume the structure as drawn.

Assays:
[1] = system: NIH/3T3 mouse embryonic fibroblast cell line; assay: MTT assay; assay type: cell-based; details: Mus musculus, NIH3T3, healthy cells for selectivity
Protocol: (§1) The anticancer effects of compounds 1–10 on A549 human lung adenocarcinoma (ATCC® CCL-185™), HepG2 human hepatocellular carcinoma (ATCC® HB-8065™), and C6 rat glioma (ATCC® CCL107™) cell lines were assessed using 3-(4,5-Dimethylthiazol-2-yl)-2,5-diphenyltetrazolium bromide (MTT) assay, whereas the selectivity of compounds 1–10 was tested using NIH/3T3 mouse embryonic fibroblast cell line (ATCC® CRL-1658™, London, UK). All cell lines were incubated according to the supplier’s recommendations. The cells were seeded as 1 × 10^4 cells into each well of the 96-well plates. MTT assay was performed as previously described. The compounds were tested between the concentrations equal to 1 mM and 0.000316 mM (1.0, 0.316, 0.10, 0.0316, 0.01, 0.00316, 0.001, 0.000316 mM). Stock solutions of compounds were prepared in dimethyl sulfoxide (DMSO) and further dilutions were made with fresh culture medium. The final DMSO concentration was under 1% [34] and cisplatin was used as a positive control. Inhibition % was calculated for each concentration according to the formula below, and IC50 values were determined by plotting a dose–response curve of inhibition % versus compound concentrations tested. All experiments were performed in quadruplicate.Inhibition % = 100 − [(ODtest compound − ODblank/ODsolvent control − ODblank)] × 100(1)

[2] = system: HepG2 human hepatocellular carcinoma cell line; assay: MTT assay; assay type: cell-based; details: Homo sapiens, HepG2
Protocol: as §1

C6 rat glioma cell line = assay: MTT assay; assay type: cell-based; details: Rattus norvegicus, C6
Protocol: as §1

[3] = system: A549 human lung adenocarcinoma cell line; assay: MTT assay; assay type: cell-based; details: Homo sapiens, A549
Protocol: as §1

C. albicans (ATCC 90028) = assay: Microdilution susceptibility assay (MIC); assay type: cell-based; details: Candida albicans, ATCC90028
Protocol: (§2) Compounds 1–10 were screened for their antimicrobial activity against gram-negative bacteria, gram-positive bacteria, and yeasts, listed in Table 1. Bacteria were grown in Mueller-Hinton Broth and yeasts were grown in Sabouraud Dextrose Broth (SDB) during experiments. Overnight cultures were prepared routinely by subculturing of stock culture onto Mueller-Hinton Agar for bacteria and Sabouraud Dextrose Agar for yeasts.
(§3) Microdilution susceptibility assay was used for the determination of antibacterial and anticandidal efficacy of compounds 1–10. Chloramphenicol and ketoconazole were used as positive controls for bacteria and yeasts, respectively. All experiments were designed according to the Clinical Laboratory Standards Institute (CLSI). All chemicals were dissolved in dimethyl sulfoxide (DMSO) to obtain stock solution (10 mg/mL). Two-fold serial dilutions (800, 400, 200...0.78 µg/mL) of the compounds were prepared from stock solutions with dH2O. 100 µL of each solution was transferred to 96-well microtiter plates and 100 µL of 10^6 CFU/mL of bacteria and 2 × 10^3 of CFU/mL yeast were added to related wells. As negative controls, wells including microorganisms without agents and wells including agents without microorganisms were used. The plates were kept at 35 °C for 18–20 h and the growth was determined with resazurin (20 mg/mL). Assays were carried out in triplicate.

E. coli (ATCC 25922) = assay: Microdilution susceptibility assay (MIC); assay type: cell-based; details: Escherichia coli, ATCC25922
Protocol: as §2, §3

E. faecalis (ATCC 51299) = assay: Microdilution susceptibility assay (MIC); assay type: cell-based; details: Enterococcus faecalis, ATCC51299
Protocol: as §2, §3

S. aureus (ATCC 25923) = assay: Microdilution susceptibility assay (MIC); assay type: cell-based; details: Staphylococcus aureus, ATCC25923
Protocol: as §2, §3

[4] = system: K. pneumoniae (ATCC 700603); assay: Microdilution susceptibility assay (MIC); assay type: cell-based; details: Klebsiella pneumoniae, ATCC700603
Protocol: as §2, §3

E. faecalis (ATCC 29212) = assay: Microdilution susceptibility assay (MIC); assay type: cell-based; details: Enterococcus faecalis, ATCC29212
Protocol: as §2, §3

C. krusei = assay: ATP luminescence microbial cell viability assay; assay type: cell-based, Candida krusei; details: 24 h treatment, result in words
Protocol: A model from BioTek Instruments Inc. combined with a BacTiter-Glo^TM Microbial Cell Viability assay (Promega Corp., Madison, WI, USA) was used to provide a sensitive and rapid method for determining the number of viable microbial cells in culture based on quantitation of the ATP present. […] After incubation, cultures were added into the wells (final concentration of bacteria was 5 × 10^5 CFU/mL and 2.5 × 10^6 CFU/mL for yeasts). After adding the BacTiter reagent, incubation time for bacteria and yeasts was 5 min and 15 min, respectively.
The assay generates a “glow-type” luminescent signal, produced by the luciferase reaction. Briefly, after chemicals and strains were incubated for 24 h, 100 µL of the culture was taken from each well and mixed with the same volume of the BacTiter-Glo™ reagent in a white, opaque-walled microtiter plate. Control wells containing medium without cells were prepared to obtain a value for background luminescence. Cells without compound were used as an ATP-positive control. The microplates were further incubated under agitation for 7 min. Bioluminescence was recorded in a multi-detection microplate reader (BioTek Synergy 2 Multi-Mode Microplate Reader, BioTek Instruments, Winooski, VT, USA). […] Experiments were performed in triplicate and each sample was measured in four replicates.

Row | Compound | IC50 [1] [µg/mL] | IC50 [2] [µg/mL] | IC50 (C6 rat glioma cell line) [µg/mL] | IC50 [3] [µg/mL] | MIC (C. albicans (ATCC 90028)) [µg/mL] | MIC (E. coli (ATCC 25922)) [µg/mL] | MIC (E. faecalis (ATCC 51299)) [µg/mL] | MIC (S. aureus (ATCC 25923)) [µg/mL] | MIC [4] [µg/mL] | MIC (E. faecalis (ATCC 29212)) [µg/mL] | antifungal activity in ATP bioluminescence assay (C. krusei)
1 | Cn1cccc1C(=O)C=Cc1ccc(-c2ccc(Cl)cc2)o1 [Compound 7, 1-(1-Methyl-1H-pyrrol-2-yl)-3-(5-(4-chlorophenyl)furan-2-yl)prop-2-en-1-one] | 40 (≈ 128 µM) | 23 (≈ 73.8 µM) | 311 (≈ 998 µM) | 98 (≈ 314 µM) | 50 (≈ 160 µM) | 400 (≈ 1280 µM) | 200 (≈ 642 µM) | 400 (≈ 1280 µM) | 100 (≈ 321 µM) | 100 (≈ 321 µM) | more statistically significant antifungal activity against C. krusei than ketoconazole
2 | Cn1cccc1C(=O)C=Cc1ccc(-c2cc(Cl)ccc2Cl)o1 [Compound 9, 1-(1-Methyl-1H-pyrrol-2-yl)-3-(5-(2,5-dichlorophenyl)furan-2-yl)prop-2-en-1-one] | 109 (≈ 315 µM) | 101 (≈ 292 µM) | 109 (≈ 315 µM) | > 346 | 200 (≈ 578 µM) | 100 (≈ 289 µM) | 400 (≈ 1160 µM) | 200 (≈ 578 µM) | 200 (≈ 578 µM) | 200 (≈ 578 µM) | more statistically significant antifungal activity against C. krusei than ketoconazole
